From US20090105562A1, “SYSTEM AND METHODS FOR SCREENING OR ANALYZING TARGETS” (TAIPEI VETERANS GENERAL HOSPITAL, priority 2007, published 2009)

Legend:
Type in all cases: cell-based, rat
[1] = system: NSCs isolated from the hippocampus of adult rats; assay: MTT cell viability/survival of NSCs treated with IM; conditions: 3 μM IM; Day 3, Day 5 and Day 7 cultures; p<0.05
Method: Adult Sprague-Dawley (SD) rats (8 weeks old, 250 g) were anesthetized with intraperitoneal phenobarbital (Sigma, USA), and the location of their brains was mapped. Then, the brain was surgically separated from the hippocampus region. In brief, tissues from the hippocampus of adult rats were dissociated and incubated in Hank's balanced salt solution (HBSS) containing collagenase (78 units/ml) and hyaluronidase (38 units/ml) for 10 minutes at 37° C. The tissues were then mechanically dissected and placed in a trypsin solution (1.33 mg/ml) at 37° C. for another 10 minutes. Dissociated cells were then centrifuged at 150 GG for 5 minutes. […] Viable cells were counted by trypan blue exclusion and plated as 5000 cells/200 μL per well in 96-well plates (Corning Inc, Acton, Mass., USA) with no substrate pretreatment. […] The amount of MTT fromazon product was determined using a microplate reader and the absorbance was measured at 560 nm (SpectraMax 250, Molecular Devices, Sunnyvale, Calif., USA). […] Each individual sample was analyzed in triplicate.

NSCs = assay: Real-time RT-PCR mRNA expression in IM-treated NSCs
Method: For real-time RT-PCR, the total RNA was extracted using the RNAeasy kit (Qiagen, Valencia, Calif., USA). Briefly, total RNA (1 μg) of each sample was reverse transcribed in 20 μL using 0.5 μg of oligo dT and 200 U Superscript II RT (Invitrogen, Carlsbad, Calif., USA). The amplification was carried out in a total volume of 20 μl containing 0.5 μM of each primer, 4 mM MgCl2, 2 μl LightCycler™ FastStart DNA Master SYBR green I (Roche Molecular Systems, Alameda, Calif., USA) and 2 μl of 1:10 diluted cDNA. The quantification in the unknown samples was performed with LightCycler Relative Quantification Software version 3.3 (Roche Molecular Systems, Alameda, Calif., USA). In each experiment, the GAPDH housekeeping gene was amplified as a reference standard. GAPDH primers were designed: GAPDH(f): […] (nt 414-434, GenBank accession no. BC059110.1), GAPDH(r): ATGACCTTGCCCACA GCCTT (nt 713-733). Other target gene primers were as follows: BDNF(f) 5′-CCAAGGCAGGTTCAA GAG-3′. BDNF(r): 5′-CCAGCAGAAAGAGAAGAGG-3′ (nt 146-331, GenBank accession no.NM_170735). Bcl-2(f): […] (nt 527-550, GenBank accession no. NM_016993.1), Bcl-2(r): GTTGTCCA CCAGGGGTGACAT (nt 721-742). Bax(f): GTGGT TGCCCTCTTCTACTTTGC (nt 328-351, GenBank accession no. NM_017059.1), Bax(r): GAGGACT CCAGCCACAAAGATG (nt 522-544). MAP2(f): GTTTACATTGTTCAGGAC CTCATGG (nt 316-341); MAP2(r): TCGGTAAGAAAGCC AGTGTGGT (nt 551-573. GenBank accession no. NM_U12008.1). Reactions were prepared in duplicate and heated to 95° C. for 10 minutes followed by 40 cycles of denaturation at 95° C. for 10 seconds, annealing at 55° C. for 5 seconds, and extension at 72° C. for 20 seconds. All PCR reactions were performed in duplicate. Standard curves (cycle threshold values versus template concentration) were prepared for each target gene and for the endogenous reference (GAPDH) in each sample. To confirm the specificity of the PCR reaction, PCR products were electrophoresed on a 1.2% agarose gel.

LPS-treated NSCs = assay: TUNEL assay of LPS-induced apoptosis in NSCs; conditions: IM treatment vs without IM
Method: An avidin-biotin complex method was used for the immunohistochemical staining in the differentiated NSCs. Following washes with the 3% hydrogen peroxide, sodium azide and antigens were retrieved using a microwave. Each slide was then treated with antibodies for Bcl-2 (Upstate Biotechnology, Waltham, Mass., USA), Nestin (Chemicon, Temecula, Calif., USA), 4′, 6-diamidino-2-phenylindole (DAPI; Chemicon, Temecula, Calif., USA) and MAP2 (Chemicon, Temecula, Calif., USA). Immunoreactive signals were detected with a mixture of biotinylated rabbit anti-mouse IgG and Fluoresave (Calbiochem, La Jolla, Calif., USA) under confocal microscopy (Olympus, FV300). Each individual sample was analyzed in triplicate. Furthermore, apoptotic cells were identified by the TUNEL method (In Situ Cell Death Detection Kit, POD, Roche Boehringer Mannheim Corp., IN, USA) as described in Chiou et al., J. Immunol. 167, 4098-4103, 2001. Briefly, the cells with cover slips were washed with 1× phosphate buffered saline (PBS), fixed with 4% of paraformaldehyde for 10 minutes, permeabilized with 0.1% of triton X-100 for 5 mins, and incubated with the TUNEL reagent provided for 1 hour. […] The percentage of TUNEL-positive cells was measured by the average of 6 different areas as compared to the total cell number in the same section slide (under a×200 power field of a light microscope).

[2] = Day 3, Day 5 and Day 7 of IM-treated NSCs
[3] = Day 5 and Day 7 IM-treated vs non IM-treated NSCs, p<0.05

Q: `CN(C)CCCN1c2ccccc2CCc2ccccc21` [IM, imipramine] was tested. Which “cell survival (MTT assay)” value [1] did it give?
A: The value was “significantly increased”.

Q: What about the “level of Bcl-2 mRNA” value (NSCs; 1, 3 and 5 μM IM, Day 7, vs Day 7 non-IM-treated NSCs) of the same molecule?
A: The value was “significantly increased”.

Q: What about the “expression of Bad” value (NSCs; [2]) of the same molecule?
A: Its value is “not activated”.

Q: What about the “expression of Bax” value (NSCs; [2]) of the same molecule?
A: The value was “not activated”.

Q: What about the “mRNA level of Bcl-2” value (NSCs; [3]) of the same molecule?
A: Its value is “significantly increased”.

Q: And the “mRNA level of MAP2” value (NSCs; [3])?
A: Its value is “significantly increased”.

Q: And the “LPS-induced apoptosis in NSCs (TUNEL assay)” value (LPS-treated NSCs)?
A: The value was “protected against LPS-induced apoptosis”.
